{
  "source": "patent US20240092846A1",
  "about": "“ENGINEERED CYCLOTIDES WITH POTENT BROAD ANTIMICROBIAL ACTIVITY” (priority 2022, published 2024)",
  "key": {"P. aeruginosa": {"system": "P. aeruginosa", "settings": "CAMHB; for MIC against P. aeruginosa: summary over the tested strains", "experimental": "(§1) Broad-spectrum antimicrobial activity was evaluated using the broth microdilution assays against two different pathogens from four different species of bacteria (P. aeruginosa, S. aureus, K. pneumoniae, and E. coli) to determine if the cyclotides retained its potent activity. Broth microdilution assays were utilized to determine the minimum inhibitory concentrations (MICs) of our cyclotides according to the CLSI (formerly NCCLS) guidelines modifications as described below (40). The assay utilized cation-adjusted Mueller-Hinton broth (CAMHB) (Becton, Dickinson and Company, Franklin Lakes, NJ) which was prepared according to the manufacturer's instructions. Cyclotide solutions were prepared as 10× solutions in 0.01% acetic acid. Cyclotide were serially diluted two-fold at concentrations ranging from 25-0.05 μM that contained CAMHB and 0.04% bovine serum albumin (BSA) in polypropylene microtiter plates (Corning, Corning, NY). All bacteria were incubated overnight at 37° C. at 200 rpm in CAMHB and bacterial inoculum was adjusted with additional CAMHB to 0.5 McFarland standard through spectrophotometry at 600 nm. […] Study strains included a total of 20 P. aeruginosa and 20 methicillin resistant S. aureus strains from patients with cystic fibrosis at the Keck Medical Center of the University of Southern California. […] Colistin sulphate (Sigma-Aldrich, St Louis, MO) was used as a reference antibiotic for P. aeruginosa and E. coli, while vancomycin hydrochloride and meropenem trihydrate were used as reference antibiotics for S. aureus and K. pneumoniae."}, "E. coli": {"system": "E. coli", "settings": "CAMHB", "experimental": "as §1"}, "K. pneumoniae": {"system": "K. pneumoniae", "settings": "CAMHB", "experimental": "as §1"}, "S. aureus": {"system": "S. aureus", "settings": "CAMHB", "experimental": "as §1"}, "in vitro": {"test": "in vitro", "experimental": "This was accomplished by incubating the corresponding peptides in human serum at 37° C. The quantitative analysis of undigested polypeptides was performed using liquid chromatography coupled with tandem mass spectrometry (LC-MS/MS). MCoTI-cyclotides present a very rigid structure,[24] which makes them extremely stable to proteolytic degradation.\nHuman serum stability. […]. Peptides were dissolved in water at 10 mg/mL concentration. 150 μg of peptides (15 μL) were mixed with 500 μL of human serum and incubated at 37° C. Samples (30 μL) were taken at various time intervals (0-120 h) and serum proteins were precipitated using 180 μL of acetonitrile containing 0.1% TFA. After centrifugation the pellet was dissolved in 8 M GdmCl and the supernatant was lyophilized and re-dissolved in 5% acetonitrile in water containing 0.1% formic acid. Both the supernatant and solubilized pellet fractions were analyzed by HPLC and LC-MS/MS. Each experiment was done in triplicate."}, "[1]": {"test": "Maximum tolerated dose (MTD) toxicology study", "description": "(§2) Colistin was used as a control antibiotic.[28] […] For this purpose, Applicant employed a P. aeruginosa bacterial peritonitis model.[29] This animal model is a well-established acute infection model and is commonly utilized as a common preclinical screening method for new antibiotics.[30] Peritonitis in Balb/c mice (n=10) was established by intraperitoneal injection of 1.5×10^7 colony forming units (CFU) per mouse of P. aeruginosa (Schroeter) Migula (ATCC 27853).\nMaximum tolerated dose (MTD) toxicology Studies. The MTD was determined using two different endpoints: weight loss and clinical scoring. Clinical scores were evaluated through activity, appearance and body condition, similar to previously published literature (42). […] Any dose escalation that leads to moderate toxicity (clinical score of >2) was ceased and the dose prior served as the MTD. Mice were monitored every hour for 4 h after injection on the first day. After 24 h, mice were monitored twice daily for another two days until weight and clinical scores were returned to normal. Mice that met the criteria for moribund included a >20% weight loss and clinical score of >3 and were euthanized."}, "[2]": {"system": "clinical isolates of methicillin-resistant S. aureus (MRSA)", "settings": "MRSA clinical isolates, n=20", "experimental": "as §1"}, "[3]": {"system": "P. aeruginosa (Schroeter) Migula (ATCC 27853)", "test": "P. aeruginosa-induced peritonitis murine model", "assay_type": "in vivo, Balb/c mice", "design": "reference not given here", "settings": "single i.p. dose 15 mg/kg, 7 days", "description": "as §2\nP. aeruginosa-induced peritonitis murine model. Eight to 10-week-old Balb/c mice (Jackson Laboratory, Bar Harbor, ME) were housed five in a cage with standard chow and water ad libitum. To establish the model, 1.5×10^7 CFU of log-phase P. aeruginosa ATCC 27853 was injected intraperitoneally. […] Mice were monitored for 7 days and/or euthanized if any mice presented signs of moribundity."}, "[4]": {"system": "clinical isolates of P. aeruginosa", "settings": "clinical isolates, n=20", "experimental": "as §1"}, "[5]": {"settings": "S. aureus BAA977, clindamycin resistant strain"}, "[6]": {"settings": "S. aureus HH35, methicillin resistant strain"}, "[7]": {"settings": "S. aureus USA300, methicillin resistant strain"}, "[8]": {"settings": "summary over the tested strains"}},
  "note": "Like-named read-outs stand apart in the source and are kept apart here. Positions of bridges follow the written chain, without caps; N, C: chain ends.",
  "data": [
    {"molecule": "CC[C@H](C)[C@@H]1NC(=O)[C@@H]2CSSC[C@@H]3NC(=O)[C@H](C(C)C)NC(=O)CNC(=O)CNC(=O)CNC(=O)[C@H](CCCNC(=N)N)NC(=O)[C@H](CCCNC(=N)N)NC(=O)CNC(=O)[C@H](C(C)C)NC(=O)[C@@H]4CSSC[C@H](NC(=O)[C@H](CC(C)C)NC(=O)[C@H](CCCNC(=N)N)NC(=O)CNC(=O)CNC(=O)CNC(=O)[C@H](CO)NC(=O)CNC(=O)[C@H](CO)NC(=O)CNC(=O)[C@@H]5CSSC[C@H](NC(=O)[C@H](CC(=O)O)NC(=O)[C@H](CO)NC(=O)[C@H](CC(=O)O)NC(=O)[C@H](CCCNC(=N)N)NC(=O)[C@H](CCCNC(=N)N)NC(=O)[C@H](CSSC[C@H](NC1=O)C(=O)N[C@@H](CCCNC(=N)N)C(=O)NCC(=O)N[C@@H](CC(N)=O)C(=O)NCC(=O)N[C@@H](Cc1ccc(O)cc1)C(=O)N5)NC(=O)[C@H](CCCNC(=N)N)NC(=O)[C@H](CCC(N)=O)NC(=O)[C@H](CC(C)C)NC(=O)[C@H]([C@@H](C)CC)NC(=O)[C@H](CCCCN)NC(=O)[C@@H]1CCCN1C3=O)C(=O)N1CCC[C@H]1C(=O)NCC(=O)N[C@@H](C)C(=O)N2)C(=O)N[C@@H](Cc1ccc(O)cc1)C(=O)N[C@H]1CSSC[C@H](NC(=O)[C@H](Cc2ccccc2)NC(=O)[C@H](CCCNC(=N)N)NC(=O)[C@H](CCCNC(=N)N)NC(=O)[C@H](CCCNC(=N)N)NC1=O)C(=O)N[C@@H](C(C)C)C(=O)N4", "note": "[MCo-PG4]", "values": [
      {"measurement": "MIC", "setting": "P. aeruginosa; P. aeruginosa PA27853", "result": 1.6, "unit": "µM"},
      {"measurement": "MIC against P. aeruginosa", "setting": "P. aeruginosa", "result": 1.6, "unit": "µM"},
      {"measurement": "MIC", "setting": "E. coli; E. coli DS377", "result": 1.6, "unit": "µM"},
      {"measurement": "MIC", "setting": "E. coli; E. coli K12", "result": 1.6, "unit": "µM"},
      {"measurement": "MIC", "setting": "K. pneumoniae; K. pneumoniae BAA1705", "result": 12.5, "unit": "µM"},
      {"measurement": "MIC", "setting": "K. pneumoniae; K. pneumoniae K6", "result": 12.5, "unit": "µM"},
      {"measurement": "MIC", "setting": "S. aureus; S. aureus 25973", "result": 12.5, "unit": "µM"},
      {"measurement": "MIC", "setting": "S. aureus; [5]", "result": 12.5, "unit": "µM"},
      {"measurement": "MIC", "setting": "S. aureus; [6]", "result": 12.5, "unit": "µM"},
      {"measurement": "MIC", "setting": "S. aureus; [7]", "result": 12.5, "unit": "µM"}
    ]},
    {"molecule": "CC(C)C[C@H](NC(=O)[C@H](CCCNC(=N)N)NC(=O)CNC(=O)CNC(=O)[C@@H](N)CCCNC(=N)N)C(=O)N[C@H]1CSSC[C@@H](C(=O)N[C@H](C(=O)NCC(=O)N[C@@H](CCCNC(=N)N)C(N)=O)C(C)C)NC(=O)[C@H](C(C)C)NC(=O)[C@@H]2CSSC[C@H](NC(=O)[C@H](Cc3ccc(O)cc3)NC1=O)C(=O)N[C@@H](CCCNC(=N)N)C(=O)N[C@@H](CCCNC(=N)N)C(=O)N[C@@H](CCCNC(=N)N)C(=O)N[C@@H](Cc1ccccc1)C(=O)N2", "note": "[PG-1, reference compound]", "values": [
      {"measurement": "degradation in human serum within the first 24 h (in words)", "setting": "in vitro; 37° C.", "result": "significant degradation"},
      {"measurement": "metabolised at 24 h, 0.29 mg/mL", "setting": "in vitro; human, human serum", "result": "~55", "unit": "%"},
      {"measurement": "half-life at 0.29 mg/mL", "setting": "in vitro; human, human serum, t1/2 in human serum, 37° C., LC-MS/MS", "result": "30 ± 3", "unit": "h"},
      {"measurement": "MTD at 3 days", "setting": "[1]; Balb/c, mouse, in vivo, ip", "result": 5, "unit": "mg/kg"}
    ]},
    {"molecule": "CN[C@H](CC(C)C)C(=O)N[C@H]1C(=O)N[C@@H](CC(N)=O)C(=O)N[C@H]2C(=O)N[C@H]3C(=O)N[C@H](C(=O)N[C@H](C(=O)O)c4cc(O)cc(O)c4-c4cc3ccc4O)[C@H](O)c3ccc(c(Cl)c3)Oc3cc2cc(c3O[C@@H]2O[C@H](CO)[C@@H](O)[C@H](O)[C@H]2O[C@H]2C[C@](C)(N)[C@H](O)[C@H](C)O2)Oc2ccc(cc2Cl)[C@H]1O", "note": "[Vancomycin, reference compound]", "values": [
      {"measurement": "S. aureus MICrange", "setting": "[2]", "result": "0.5 to 1.4", "unit": "µM"}
    ]},
    {"molecule": "Colistin", "values": [
      {"measurement": "maximum tolerated dose (well tolerated intraperitoneal dose)", "setting": "[1]; Balb/c mice, single i.p. dose, endpoints weight loss and clinical score", "result": 15, "unit": "mg/kg"},
      {"measurement": "hazard ratio [HR] (survival)", "setting": "[3]; 12.3 μmol/kg, as printed in legend of FIG. 4", "result": 24.8},
      {"measurement": "hazard ratio [HR] (survival)", "setting": "[3]", "result": 0.040},
      {"measurement": "P. aeruginosa MIC50", "setting": "[4]", "result": "≤0.2", "unit": "µM"},
      {"measurement": "P. aeruginosa MIC90", "setting": "[4]", "result": 0.4, "unit": "µM"},
      {"measurement": "P. aeruginosa MICrange", "setting": "[4]", "result": "≤0.2 to 0.4", "unit": "µM"}
    ]},
    {"molecule": "cyclo(GGVCPKILQRCRRDSDCPGACICRGNGYCGSGSGGCLCYCRRRFCVCVCRR) (disulfide 4-21, 11-23, 17-29, 36-49, 38-47, 40-45 (inferred); ring closure inferred) [MCo-PG3]", "values": [
      {"measurement": "MIC", "setting": "P. aeruginosa; P. aeruginosa PA27853", "result": 25, "unit": "µM"},
      {"measurement": "MIC against P. aeruginosa", "setting": "P. aeruginosa", "result": 25, "unit": "µM"},
      {"measurement": "MIC", "setting": "E. coli; E. coli K12", "result": ">25", "unit": "µM"},
      {"measurement": "MIC against E. coli", "setting": "E. coli; [8]", "result": "above 25 μM"},
      {"measurement": "MIC", "setting": "K. pneumoniae; K. pneumoniae K6", "result": ">25", "unit": "µM"},
      {"measurement": "MIC against K. pneumoniae", "setting": "K. pneumoniae; [8]", "result": "above 25 μM"},
      {"measurement": "MIC", "setting": "S. aureus; S. aureus 25973", "result": ">25", "unit": "µM"},
      {"measurement": "MIC", "setting": "S. aureus; [5]", "result": ">25", "unit": "µM"},
      {"measurement": "MIC", "setting": "S. aureus; [6]", "result": ">25", "unit": "µM"},
      {"measurement": "MIC against S. aureus", "setting": "S. aureus; [8]", "result": "above 25 μM"}
    ]},
    {"molecule": "cyclo[GGVCPKILQRCRRDSDCPGACICRGNGYCGSGSGRLCYCRRRFCVCVGR] (cyclo(GGVCPKILQRCRRDSDCPGACICRGNGYCGSGSGRLCYCRRRFCVCVGR); not fully specified; printed as cyclo[GGVCPKILQRCRRDSDCPGACICRGNGYCGSGSGRLCYCRRRFCVCVGR]; cysteine pairing not given here) [MCo-PG5]", "values": [
      {"measurement": "MIC", "setting": "P. aeruginosa; P. aeruginosa PA27853", "result": 3.1, "unit": "µM"},
      {"measurement": "MIC", "setting": "P. aeruginosa; P. aeruginosa PAO1", "result": 3.1, "unit": "µM"},
      {"measurement": "MIC", "setting": "E. coli; E. coli DS377", "result": 1.6, "unit": "µM"},
      {"measurement": "MIC", "setting": "E. coli; E. coli K12", "result": 1.6, "unit": "µM"},
      {"measurement": "MIC", "setting": "K. pneumoniae; K. pneumoniae BAA1705", "result": 6.2, "unit": "µM"},
      {"measurement": "MIC", "setting": "K. pneumoniae; K. pneumoniae K6", "result": 6.2, "unit": "µM"},
      {"measurement": "MIC", "setting": "S. aureus; S. aureus 25973", "result": 12.5, "unit": "µM"},
      {"measurement": "MIC", "setting": "S. aureus; [5]", "result": 12.5, "unit": "µM"},
      {"measurement": "MIC", "setting": "S. aureus; [6]", "result": 12.5, "unit": "µM"},
      {"measurement": "MIC", "setting": "S. aureus; [7]", "result": 12.5, "unit": "µM"}
    ]}
  ]
}
